Experimental data published in patent US20230137667A1, “METHODS AND COMPOSITIONS FOR TREATMENT OF CORONAVIRUS INFECTION” (priority 2020, published 2023).
Read-outs that look alike come from different tables or passages of the source.

What was measured:
caspases 3/7 [1] = assay type: cell-based, human
caspases 3/7 [2] = assay type: cell-based, human; remark: listed apart in the source
[3] = test system: primary human lung microvascular endothelial cells (MVE)
[4] = test system: primary human lung microvascular endothelial cells (MVE); remark: listed apart in the source
[5] = test system: primary human lung fibroblasts (FB)
MERS-CoV [6] = assay type: cell-based
MERS-CoV [7] = assay type: cell-based; remark: listed apart in the source
[8] = test system: primary human lung fibroblasts (FB); remark: listed apart in the source

| Compound | caspase 3/7 activation above untreated infected cells (caspases 3/7 [1]) | caspase 3/7 activation above untreated infected cells (caspases 3/7 [2]) | cytotoxicity (CellTiter-Glo cell viability) [3] | caspase 3/7 activation (caspases 3/7 [1]) | caspase 3/7 activation (caspases 3/7 [2]) | cell viability [4] | cell viability [5] | MERS-CoV replication (nanoluciferase expression) (MERS-CoV [6]) | MERS-CoV replication (nanoluciferase expression) (MERS-CoV [7]) | cytotoxicity (CellTiter-Glo cell viability) [8] |
| --- | --- | --- | --- | --- | --- | --- | --- | --- | --- | --- |
| Cc1ccc2cc(-c3c(C)ccc(C(=O)c4c(-c5ccccc5)n(C)n(-c5ccccc5)c4=O)c3N)ccc2n1 [AMG PERK 44] | No significant dose responsive change in caspase 3/7 activation above untreated infected cells | No significant dose responsive change in caspase 3/7 activation above untreated infected cells | dose dependent increase in cytotoxicity |  |  |  |  |  |  |  |
| C[C@H](CCC(=O)O)C[C@H](C)C[C@H](C)C(=O)/C=C(\O)[C@H](C)C[C@H](C)C/C=C/[C@@H](C)[C@@H](O)[C@@H](C)[C@@H](O)C[C@@H]1CC[C@@](C)([C@H]2CC[C@@](C)([C@@H](C)O)O2)O1 [ionomycin] |  |  |  | did not induce caspase 3/7 activation | did not induce caspase 3/7 activation | diminished cell viability | diminished cell viability |  |  |  |
| CN[C@@H]1C[C@H]2O[C@@](C)([C@@H]1OC)n1c3ccccc3c3c4c(c5c6ccccc6n2c5c31)C(=O)NC4 [staurosporine] |  |  |  | significantly induced caspase 3/7 activation | significantly induced caspase 3/7 activation | diminished cell viability | diminished cell viability |  |  |  |
| O=C(COc1ccc(Cl)cc1)NC1CCC(NC(=O)COc2ccc(Cl)cc2)CC1 (stereo not drawn) [trans-ISRIB] |  |  | not cytotoxic at any dose tested |  |  |  |  | did not alter MERS-CoV replication in either infected MVE or FB | did not alter MERS-CoV replication in either infected MVE or FB | not cytotoxic at any dose tested |
